Assay results published in patent US20170107531A1, “ISOLATED NUCLEIC ACIDS AND QU[…] LOCI (QTL) FROM S. HA[…] METHODS OF USE THEREOF FOR […] BACTERIAL SPECK DISEASE IN TOMATO AND OTHER PLANTS” (Boyce Thompson Institute, priority 2015, published 2017).

Assays:
[1] = tested on: Solyc02g072470 transcript abundance; test: Solyc02g072470 transcript abundance in leaves after MAMP treatment (qRT-PCR), LA2109; type: in vivo, Solanum habrochaites accession LA2109
Protocol: (§1) Two lateral leaflets on the second leaf of 3-week old tomato plants were syringe-infiltrated with 1 uM FlgII-28 ([…]) (SEQ ID NO. 1) (Cal, et al., 2011) or 10 uM Csp22 ([…]) (SEQ ID NO. 2) (Felix and Boller, 2003) and harvested 6 hrs later. Tissue samples were immediately frozen in liquid nitrogen and kept at −80° C. until use. Six-week-old plants were inoculated with 10^5 colony-forming units (CFU)/mL P. syringae pv. tomato T1 by vacuum infiltration for the visual monitoring of disease symptoms and 10^4 CFU/mL for the measurement of bacterial populations. For each replicate, three leaf discs were collected and combined; each experiment involved replicates from three independent plants.
(§2) Leaf tissue was ground in liquid nitrogen and total RNA was extracted with TRIzol reagent following the manufacturer's instructions (Life Technologies, cat. #15596-018). The concentration of total RNA was determined with a Nanodrop spectrophotometer (Thermo Scientific Co.). RNA (lug) was treated with TURBO DNA-free™ Kit (Life Technologies, cat. AM1907M) and tested for DNA contamination by amplifying SlCBL1 (Solyc12g015870) for 25 cycles; no PCR product was detected. The RNA was then used for reverse transcription PCR (RT-PCR). […] 1 μl and 0.4 μl of cDNA templates were used for RT-PCR and quantitative-RT-PCR (qRT-PCR), respectively. […]

[2] = tested on: reactive oxygen species (ROS) in LA2109; details: Veluchamy et al., 2014; cited from earlier work
[3] = tested on: Solyc02g072470 transcript abundance; test: Solyc02g072470 transcript abundance in leaves after MAMP treatment (qRT-PCR), RG-PtoS; type: in vivo, tomato (Rio Grande RG-PtoS)
Protocol: as §1, §2

[4] = tested on: reactive oxygen species (ROS) in LA2109; test: Reactive oxygen species (ROS) elicitation by MAMP peptides, luminescence-based assay; type: cell-based, Solanum habrochaites accession LA2109; details: for PTI-eliciting activity of synthetic peptide: FIG. 2D, FIGS. 3C-E, also Cai et al., 2011; for ROS elicitation (relative light units): LA2109, FIG. 3C
Protocol: FIG. 3A-FIG. 3E. […] (FIG. 3A) Bacterial speck disease on leaves of LA2109 four days after inoculation with Pst19 or Pst19ΔavrPtoB. (FIG. 3B) Bacterial populations of Pst19 and Pst19ΔavrPtoB in leaves of LA2109. Error bars indicate standard deviation. Testing the possible response of LA2109 to FlgII-28, effector HopAO1, and coronatine. […] ROS was measured as relative light units using a luminescence-based assay. […] Strain NY-T1 was included as a virulent control. All strains were inoculated at 2×10^5 CFU/mL. (FIG. 3E) Coronatine (1.25 nM) was syringe-infiltrated into leaves of LA2109 and Moneymaker (red arrows). Leaves of LA2109 were not observably more sensitive to this phytotoxin.

[5] = 10 uM Csp22, 6 hours after treatment
[6] = 1 uM FlgII-28, 6 hours after treatment, vs 10 mM MgCl2 mock

Substance	PTI-eliciting activity of synthetic peptide [4]	ROS elicitation (relative light units) [4]	also measured
AVGTVKWFNAEKGFGFITPDDG (Csp22)			Effect on Solyc02g072470 transcript abundance [1, 5]: significantly induced; ROS response to Csp22, LA2109 compared to RG-PtoS [2]: higher ROS response; Effect on Solyc02g072470 transcript abundance [3, 5]: no effect
ESTNILQRMRELAVQSRNDSNSATDREA (FlgII-28)			Increase of Solyc02g072470 transcript abundance [1, 6]: 1.5 fold; Increase of Solyc02g072470 transcript abundance [3, 6]: 4 fold
FlgII-28 from DC3000: synthetic peptide of the FlgII-28 region of Pst strain DC3000 flagellin (SEQ ID NO: 77) (QTMAIKNANDGMSLAQTAEGALQESTNILQRMRELAVQSRNDSNSATDREALNKEFTAMS; FlgII-28 region)	fully active	same level	
FlgII-28 from NY-T1: FlgII-28 region of NY-T1 flagellin, phenylalanine at position 16 instead of serine (SEQ ID NO: 76) (QTMAIKNANDGMSLAQTAEGALQESTNILQRMRELAVQFRNDSNSSTDRDALNKEFTAMS; FlgII-28 region)		inactive	
FlgII-28 from T1: synthetic peptide of the FlgII-28 region of Pst strain T1 flagellin (SEQ ID NO: 75) (QTMAIKNANDGMSLAQTAEGALQESTNILQRMRELAVQSRNDSNSSTDRDALNKEFTAMS; FlgII-28 region)	fully active	same level	
